Test results published in ChEMBL document CHEMBL4477252, “Optimization of microtubule affinity regulating kinase (MARK) inhibitors with improved physical properties” (Bioorg Med Chem Lett, 2016).

Assays:
[1] = Inhibition of full-length recombinant human GST and His-tagged AMPK alpha2/beta1/gamma1 expressed in baculovirus expression system by LanthaScreen assay
[2] = target: Macrophage colony-stimulating factor 1 receptor (Homo sapiens, UniProt P07333); test: Inhibition of recombinant human His-tagged cytoplasmic CSF1R expressed in baculovirus expression system by Z'-LYTE assay
Chain of Macrophage colony-stimulating factor 1 receptor (P07333 whole entry): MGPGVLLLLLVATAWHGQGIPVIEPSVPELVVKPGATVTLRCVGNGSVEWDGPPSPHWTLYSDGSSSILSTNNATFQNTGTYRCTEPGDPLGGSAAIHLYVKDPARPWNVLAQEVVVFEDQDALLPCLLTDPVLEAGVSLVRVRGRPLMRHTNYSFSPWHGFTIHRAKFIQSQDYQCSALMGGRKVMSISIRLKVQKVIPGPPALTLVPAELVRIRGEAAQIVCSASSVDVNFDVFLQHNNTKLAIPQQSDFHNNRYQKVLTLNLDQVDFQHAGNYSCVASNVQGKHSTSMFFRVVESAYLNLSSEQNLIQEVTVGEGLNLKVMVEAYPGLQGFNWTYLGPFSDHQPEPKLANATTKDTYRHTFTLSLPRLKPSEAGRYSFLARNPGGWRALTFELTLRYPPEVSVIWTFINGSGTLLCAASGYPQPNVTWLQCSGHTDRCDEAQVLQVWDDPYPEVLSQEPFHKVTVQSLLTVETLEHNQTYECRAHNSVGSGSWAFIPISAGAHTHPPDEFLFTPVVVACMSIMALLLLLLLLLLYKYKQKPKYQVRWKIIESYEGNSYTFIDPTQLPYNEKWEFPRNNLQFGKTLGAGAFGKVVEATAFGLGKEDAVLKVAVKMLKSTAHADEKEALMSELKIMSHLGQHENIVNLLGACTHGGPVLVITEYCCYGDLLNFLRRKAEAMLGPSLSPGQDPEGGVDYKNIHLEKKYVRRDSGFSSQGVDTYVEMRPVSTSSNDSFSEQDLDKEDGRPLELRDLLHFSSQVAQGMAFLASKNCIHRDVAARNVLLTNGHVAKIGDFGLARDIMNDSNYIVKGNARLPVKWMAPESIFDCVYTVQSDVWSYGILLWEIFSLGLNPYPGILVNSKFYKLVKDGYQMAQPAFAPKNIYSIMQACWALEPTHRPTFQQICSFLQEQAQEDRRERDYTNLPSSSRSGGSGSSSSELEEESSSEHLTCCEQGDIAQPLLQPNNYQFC

[3] = target: Epidermal growth factor receptor (Homo sapiens, UniProt P00533); test: Inhibition of recombinant human His-tagged EGFR expressed in mammalian expression system by Z'-LYTE assay
Chain of Epidermal growth factor receptor (P00533 whole entry): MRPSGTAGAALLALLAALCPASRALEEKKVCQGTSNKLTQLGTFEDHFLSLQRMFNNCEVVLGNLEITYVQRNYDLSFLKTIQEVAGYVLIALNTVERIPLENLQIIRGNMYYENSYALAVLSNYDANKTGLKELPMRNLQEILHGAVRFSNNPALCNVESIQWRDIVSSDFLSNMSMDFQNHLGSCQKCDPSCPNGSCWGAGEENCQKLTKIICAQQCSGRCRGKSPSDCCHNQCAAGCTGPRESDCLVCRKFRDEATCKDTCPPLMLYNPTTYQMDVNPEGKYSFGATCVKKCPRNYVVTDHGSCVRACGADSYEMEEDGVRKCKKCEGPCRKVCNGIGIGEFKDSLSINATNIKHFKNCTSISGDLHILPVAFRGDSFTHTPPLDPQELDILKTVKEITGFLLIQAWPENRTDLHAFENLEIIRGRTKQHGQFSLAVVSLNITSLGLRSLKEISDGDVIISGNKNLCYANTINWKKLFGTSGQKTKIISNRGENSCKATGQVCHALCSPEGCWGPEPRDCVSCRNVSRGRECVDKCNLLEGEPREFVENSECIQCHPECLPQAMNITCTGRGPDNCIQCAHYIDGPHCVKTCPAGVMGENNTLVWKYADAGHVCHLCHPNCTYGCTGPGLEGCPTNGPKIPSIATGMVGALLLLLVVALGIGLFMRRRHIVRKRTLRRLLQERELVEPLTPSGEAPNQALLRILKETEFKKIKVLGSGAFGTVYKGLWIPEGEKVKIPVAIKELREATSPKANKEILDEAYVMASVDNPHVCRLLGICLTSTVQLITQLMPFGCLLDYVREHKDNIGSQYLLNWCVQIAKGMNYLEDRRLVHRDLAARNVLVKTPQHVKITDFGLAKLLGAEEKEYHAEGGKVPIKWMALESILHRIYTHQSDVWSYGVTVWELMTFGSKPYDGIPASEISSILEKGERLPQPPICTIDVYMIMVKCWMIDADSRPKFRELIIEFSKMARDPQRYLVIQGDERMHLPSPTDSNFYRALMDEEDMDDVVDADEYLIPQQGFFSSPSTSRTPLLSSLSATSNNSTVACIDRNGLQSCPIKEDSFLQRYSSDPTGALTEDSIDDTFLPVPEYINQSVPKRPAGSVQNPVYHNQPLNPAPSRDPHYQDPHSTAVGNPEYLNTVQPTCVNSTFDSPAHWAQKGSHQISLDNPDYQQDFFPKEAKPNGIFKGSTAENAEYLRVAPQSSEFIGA

Ephrin type-B receptor 2 = target: T1, Ephrin type-B receptor 2 (Homo sapiens, UniProt P29323); test: Inhibition of recombinant human GST-tagged cytoplasmic EPHB2 expressed in baculovirus expression system by Z'-LYTE assay
T1 sequence (P29323 whole entry): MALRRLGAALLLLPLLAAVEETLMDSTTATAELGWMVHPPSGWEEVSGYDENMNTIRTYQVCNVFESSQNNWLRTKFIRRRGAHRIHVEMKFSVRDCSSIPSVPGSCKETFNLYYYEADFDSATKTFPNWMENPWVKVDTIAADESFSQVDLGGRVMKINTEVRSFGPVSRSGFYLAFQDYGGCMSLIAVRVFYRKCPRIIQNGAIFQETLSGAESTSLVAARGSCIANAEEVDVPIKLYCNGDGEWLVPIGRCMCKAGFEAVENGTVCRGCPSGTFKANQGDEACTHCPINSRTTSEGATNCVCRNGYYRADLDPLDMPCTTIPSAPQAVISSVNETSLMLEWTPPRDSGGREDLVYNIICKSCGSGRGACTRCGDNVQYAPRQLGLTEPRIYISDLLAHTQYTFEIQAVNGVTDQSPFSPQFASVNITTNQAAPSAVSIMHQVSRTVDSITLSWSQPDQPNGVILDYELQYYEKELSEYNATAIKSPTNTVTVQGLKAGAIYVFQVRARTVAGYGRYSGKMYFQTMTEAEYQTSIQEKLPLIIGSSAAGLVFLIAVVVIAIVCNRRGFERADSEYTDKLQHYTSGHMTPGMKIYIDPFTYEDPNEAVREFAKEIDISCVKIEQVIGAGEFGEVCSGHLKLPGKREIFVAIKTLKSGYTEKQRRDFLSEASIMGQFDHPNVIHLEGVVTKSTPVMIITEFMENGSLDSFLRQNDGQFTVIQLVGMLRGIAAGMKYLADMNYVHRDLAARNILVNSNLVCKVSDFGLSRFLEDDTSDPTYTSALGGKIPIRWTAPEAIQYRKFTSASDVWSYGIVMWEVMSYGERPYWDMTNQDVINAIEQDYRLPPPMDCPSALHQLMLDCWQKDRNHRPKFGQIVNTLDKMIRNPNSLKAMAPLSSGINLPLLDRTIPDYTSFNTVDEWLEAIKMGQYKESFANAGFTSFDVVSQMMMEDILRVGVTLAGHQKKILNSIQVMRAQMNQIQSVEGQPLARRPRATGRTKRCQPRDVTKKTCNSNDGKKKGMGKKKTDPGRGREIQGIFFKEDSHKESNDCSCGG

[4] = target: G protein-coupled receptor kinase 4 (Homo sapiens, UniProt P32298); test: Inhibition of full-length recombinant human GST-tagged GRK4 expressed in baculovirus expression system by Z'-LYTE assay
Chain of G protein-coupled receptor kinase 4 (P32298 whole entry): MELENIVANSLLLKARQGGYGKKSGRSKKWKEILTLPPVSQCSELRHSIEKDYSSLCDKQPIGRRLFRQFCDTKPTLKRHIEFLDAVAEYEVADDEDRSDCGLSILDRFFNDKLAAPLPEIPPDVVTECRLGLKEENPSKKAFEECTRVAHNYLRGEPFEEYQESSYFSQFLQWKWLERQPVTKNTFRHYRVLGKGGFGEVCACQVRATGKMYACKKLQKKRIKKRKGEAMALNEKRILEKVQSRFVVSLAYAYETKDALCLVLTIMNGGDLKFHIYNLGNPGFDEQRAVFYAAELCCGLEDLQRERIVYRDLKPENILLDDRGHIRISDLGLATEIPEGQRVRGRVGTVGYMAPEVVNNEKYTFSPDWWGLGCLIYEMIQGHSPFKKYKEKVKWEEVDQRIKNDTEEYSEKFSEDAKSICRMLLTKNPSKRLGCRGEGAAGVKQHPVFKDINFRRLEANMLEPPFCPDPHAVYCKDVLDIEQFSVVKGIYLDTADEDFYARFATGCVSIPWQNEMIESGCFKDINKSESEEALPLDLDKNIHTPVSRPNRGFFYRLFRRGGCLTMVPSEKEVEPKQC

[5] = target: T2, Interleukin-1 receptor-associated kinase 4 (Homo sapiens, UniProt Q9NWZ3); test: Inhibition of full-length recombinant human His-tagged IRAK4 expressed in baculovirus expression system by Z'-LYTE assay
T2 sequence (Q9NWZ3 whole entry): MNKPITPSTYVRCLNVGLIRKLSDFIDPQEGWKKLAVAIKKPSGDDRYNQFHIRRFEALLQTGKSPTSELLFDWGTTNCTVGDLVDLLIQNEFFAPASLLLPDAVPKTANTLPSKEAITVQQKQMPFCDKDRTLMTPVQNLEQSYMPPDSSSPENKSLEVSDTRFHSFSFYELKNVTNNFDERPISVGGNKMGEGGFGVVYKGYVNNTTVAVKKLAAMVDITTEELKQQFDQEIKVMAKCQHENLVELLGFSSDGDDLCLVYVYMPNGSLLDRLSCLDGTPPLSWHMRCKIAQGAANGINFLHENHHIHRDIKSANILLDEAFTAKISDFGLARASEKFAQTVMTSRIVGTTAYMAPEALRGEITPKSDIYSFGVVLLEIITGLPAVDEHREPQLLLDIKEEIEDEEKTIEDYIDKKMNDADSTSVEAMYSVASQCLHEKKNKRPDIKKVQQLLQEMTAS

[6] = target: Mitogen-activated protein kinase 9 (Homo sapiens, UniProt P45984); test: Inhibition of full-length recombinant human His-tagged MAPK9 expressed in baculovirus expression system by Z'-LYTE assay
Chain of Mitogen-activated protein kinase 9 (P45984 whole entry): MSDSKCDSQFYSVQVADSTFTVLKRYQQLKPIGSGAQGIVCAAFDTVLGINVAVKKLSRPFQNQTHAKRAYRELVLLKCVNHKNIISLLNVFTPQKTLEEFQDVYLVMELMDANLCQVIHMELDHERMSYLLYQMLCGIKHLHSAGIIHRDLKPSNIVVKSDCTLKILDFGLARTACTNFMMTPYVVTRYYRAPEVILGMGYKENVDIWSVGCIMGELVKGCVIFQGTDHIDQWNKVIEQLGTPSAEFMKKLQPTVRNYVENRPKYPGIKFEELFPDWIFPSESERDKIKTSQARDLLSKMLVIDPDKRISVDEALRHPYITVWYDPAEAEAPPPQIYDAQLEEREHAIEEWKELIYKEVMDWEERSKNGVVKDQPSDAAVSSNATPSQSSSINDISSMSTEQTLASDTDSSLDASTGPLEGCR

[7] = target: Serine/threonine-protein kinase Nek6 (Homo sapiens, UniProt Q9HC98); test: Inhibition of full-length recombinant human GST-tagged NEK6 expressed in insect cells by Z'-LYTE assay
Chain of Serine/threonine-protein kinase Nek6 (Q9HC98 whole entry, the tested form may be a part): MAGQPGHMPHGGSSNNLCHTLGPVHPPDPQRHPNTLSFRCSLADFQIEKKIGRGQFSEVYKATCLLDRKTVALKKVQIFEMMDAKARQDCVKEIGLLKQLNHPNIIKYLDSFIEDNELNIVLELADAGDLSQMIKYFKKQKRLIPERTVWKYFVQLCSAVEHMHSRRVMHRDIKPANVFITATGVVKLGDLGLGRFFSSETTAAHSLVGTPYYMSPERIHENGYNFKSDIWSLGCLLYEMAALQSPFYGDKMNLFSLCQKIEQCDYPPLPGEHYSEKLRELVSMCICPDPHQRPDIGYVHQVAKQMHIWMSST

[8] = target: PAS domain-containing serine/threonine-protein kinase (Homo sapiens, UniProt Q96RG2); test: Inhibition of recombinant human GST-tagged PASK catalytic domain expressed in baculovirus expression system by Z'-LYTE assay
[9] = target: Serine/threonine-protein kinase pim-1 (Homo sapiens, UniProt P11309); test: Inhibition of full-length recombinant human His-tagged PIM1 expressed in baculovirus expression system by Z'-LYTE assay
Chain of Serine/threonine-protein kinase pim-1 (P11309 whole entry): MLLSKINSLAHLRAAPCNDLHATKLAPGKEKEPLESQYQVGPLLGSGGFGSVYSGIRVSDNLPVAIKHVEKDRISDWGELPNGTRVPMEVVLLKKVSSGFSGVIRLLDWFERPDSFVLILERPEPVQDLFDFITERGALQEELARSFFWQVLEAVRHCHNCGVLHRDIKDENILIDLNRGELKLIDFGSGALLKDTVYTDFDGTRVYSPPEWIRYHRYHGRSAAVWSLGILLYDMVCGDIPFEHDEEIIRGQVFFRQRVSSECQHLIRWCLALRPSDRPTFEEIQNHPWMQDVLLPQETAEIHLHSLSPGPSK

[10] = target: RAF proto-oncogene serine/threonine-protein kinase (Homo sapiens, UniProt P04049, Y340D/Y341D); test: Inhibition of recombinant human GST-tagged RAF1 Y340D/Y341D mutant expressed in baculovirus expression system by Z'-LYTE assay
[11] = target: Ribosomal protein S6 kinase beta-1 (Homo sapiens, UniProt P23443); test: Inhibition of full-length recombinant human GST-tagged RPS6KB1 catalytic domain expressed in baculovirus expression system by Z'-LYTE assay
Chain of Ribosomal protein S6 kinase beta-1 (P23443 whole entry, the tested form may be a part): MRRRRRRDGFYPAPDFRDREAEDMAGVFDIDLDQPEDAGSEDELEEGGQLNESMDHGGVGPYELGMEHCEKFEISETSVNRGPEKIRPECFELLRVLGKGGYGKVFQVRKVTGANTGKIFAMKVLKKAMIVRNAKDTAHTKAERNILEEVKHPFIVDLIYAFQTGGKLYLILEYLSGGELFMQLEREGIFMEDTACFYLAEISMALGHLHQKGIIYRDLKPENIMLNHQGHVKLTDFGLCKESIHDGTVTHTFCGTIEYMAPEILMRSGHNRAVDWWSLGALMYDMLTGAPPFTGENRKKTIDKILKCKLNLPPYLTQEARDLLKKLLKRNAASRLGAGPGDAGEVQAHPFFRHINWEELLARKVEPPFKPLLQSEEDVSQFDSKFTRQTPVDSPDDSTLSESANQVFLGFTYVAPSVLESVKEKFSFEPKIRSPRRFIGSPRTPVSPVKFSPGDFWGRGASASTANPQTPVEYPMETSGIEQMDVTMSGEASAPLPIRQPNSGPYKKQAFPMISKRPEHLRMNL

SRSF protein kinase 1 = SRSF protein kinase 1 (Homo sapiens, UniProt Q96SB4); test: Inhibition of full-length recombinant human His-tagged SRPK1 expressed in baculovirus expression system by Z'-LYTE assay
Chain of SRSF protein kinase 1 (Q96SB4 whole entry): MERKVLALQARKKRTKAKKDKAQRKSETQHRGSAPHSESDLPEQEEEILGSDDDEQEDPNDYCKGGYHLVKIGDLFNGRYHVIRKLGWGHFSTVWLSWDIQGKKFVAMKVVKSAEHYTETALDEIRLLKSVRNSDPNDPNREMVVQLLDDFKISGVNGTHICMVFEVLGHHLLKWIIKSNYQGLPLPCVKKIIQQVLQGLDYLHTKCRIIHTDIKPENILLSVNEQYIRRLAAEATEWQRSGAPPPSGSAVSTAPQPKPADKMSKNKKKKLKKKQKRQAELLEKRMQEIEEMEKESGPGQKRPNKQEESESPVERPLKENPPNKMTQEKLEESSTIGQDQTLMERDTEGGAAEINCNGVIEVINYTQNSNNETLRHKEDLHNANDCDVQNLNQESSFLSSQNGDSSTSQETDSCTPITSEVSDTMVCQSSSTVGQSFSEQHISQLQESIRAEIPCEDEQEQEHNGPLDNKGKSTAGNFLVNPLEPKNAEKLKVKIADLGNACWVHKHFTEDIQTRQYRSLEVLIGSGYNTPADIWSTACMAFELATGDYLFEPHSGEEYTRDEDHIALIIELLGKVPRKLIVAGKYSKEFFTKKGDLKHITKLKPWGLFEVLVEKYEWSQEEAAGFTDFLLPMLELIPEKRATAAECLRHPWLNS

[12] = target: T3, Testis-specific serine/threonine-protein kinase 1 (Homo sapiens, UniProt Q9BXA7); test: Inhibition of full-length recombinant human His-tagged STK22D expressed in baculovirus expression system by Z'-LYTE assay
T3 sequence (Q9BXA7 whole entry): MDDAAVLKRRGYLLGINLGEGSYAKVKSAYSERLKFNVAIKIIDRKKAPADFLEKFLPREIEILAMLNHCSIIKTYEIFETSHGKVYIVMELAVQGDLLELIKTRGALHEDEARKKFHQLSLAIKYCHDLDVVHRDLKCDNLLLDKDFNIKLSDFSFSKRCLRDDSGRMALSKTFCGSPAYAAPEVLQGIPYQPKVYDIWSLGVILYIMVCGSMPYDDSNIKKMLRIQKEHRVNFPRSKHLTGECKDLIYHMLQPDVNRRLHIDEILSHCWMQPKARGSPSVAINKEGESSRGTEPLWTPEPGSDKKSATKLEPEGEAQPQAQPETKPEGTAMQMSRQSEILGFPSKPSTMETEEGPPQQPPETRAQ

| Compound | IC50 [1] | IC50 [2] | IC50 [3] | IC50 (Ephrin type-B receptor 2) | IC50 [4] | IC50 [5] | IC50 [6] | IC50 [7] | IC50 [8] | IC50 [9] | IC50 [10] | IC50 [11] | IC50 (SRSF protein kinase 1) | IC50 [12] |
| --- | --- | --- | --- | --- | --- | --- | --- | --- | --- | --- | --- | --- | --- | --- |
| O=C(NCC(F)(F)F)c1cc(-c2cnn3cc(-c4ccc(OCCN5CCCCC5)cc4)cnc23)cs1 | 25 nM | 41 nM | 1100 nM | < 10 nM | 5300 nM | 210 nM | 850 nM | 8800 nM | 37000 nM | 590 nM | 630 nM | 88 nM | > 100000 nM | < 10 nM |
| Cn1cc(-c2cnc3c(-c4csc(C(=O)NCC(F)(F)F)c4)cnn3c2)cn1 | 68 nM | 100 nM | 28000 nM | 36 nM | 19000 nM | 64 nM | 1700 nM | 5900 nM | > 100000 nM | 9900 nM | 560 nM | 110 nM | 28000 nM | 20 nM |
| Cn1cc(-c2cnc3c(-c4csc(C(=O)N[C@@H]5CCCC[C@@H]5N)c4)cnn3c2)cn1 (racemic) |  | 3.3 nM | 340 nM | 2.9 nM | 260 nM | 23 nM | 640 nM | 2600 nM | 1500 nM | 2800 nM | 48 nM | 8 nM | 140 nM | < 1 nM |
| Cc1sc(C(=O)N[C@@H]2[C@H](N)CCCC2(F)F)cc1-c1cnn2cc(Cl)cnc12 | 290 nM | 22000 nM | > 100000 nM | 3800 nM | 670 nM | 3000 nM | 4400 nM | 17000 nM | 1400 nM | 1600 nM | 950 nM | 1500 nM | 12000 nM | < 10 nM |
